Among the data in patent publication US11713344B2 (DONG-A ST CO., LTD., priority 2017, dated 2023) are EC50 values, retold here.

By pEC50 is commonly meant the EC50 on a negative log10 scale, so that one unit is a factor of ten. Read a low pEC50 as a large EC50.

pEC50: −log10 of the molar value. Where only a bound is given, the exact number is not on record here.

One experiment concerns the target Human glucagon receptors (Homo sapiens, UniProt P47871). Put plainly: Glucagon receptor activation assay (CRE-luciferase reporter, CHO-K1).
The next experiment has as its target Human GLP-1 receptors (Homo sapiens, UniProt P43220). In words: GLP-1 receptor activation assay (CRE-luciferase reporter, CHO-K1). (In general: A reporter such as luciferase makes a cellular process visible.)

Sequence of Human glucagon receptors (P47871 26-477): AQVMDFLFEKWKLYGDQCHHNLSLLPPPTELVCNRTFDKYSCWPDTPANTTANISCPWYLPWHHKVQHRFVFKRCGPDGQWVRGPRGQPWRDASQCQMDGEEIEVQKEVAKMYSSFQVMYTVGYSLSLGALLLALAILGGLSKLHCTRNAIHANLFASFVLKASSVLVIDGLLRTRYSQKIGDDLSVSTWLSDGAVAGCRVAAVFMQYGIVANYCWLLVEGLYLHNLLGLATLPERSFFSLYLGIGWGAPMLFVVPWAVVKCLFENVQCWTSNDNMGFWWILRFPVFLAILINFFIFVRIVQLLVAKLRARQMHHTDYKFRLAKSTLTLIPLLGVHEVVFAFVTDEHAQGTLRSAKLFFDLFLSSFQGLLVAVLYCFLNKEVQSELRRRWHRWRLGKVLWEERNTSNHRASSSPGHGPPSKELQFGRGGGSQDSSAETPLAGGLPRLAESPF
Sequence of Human GLP-1 receptors (P43220 24-463): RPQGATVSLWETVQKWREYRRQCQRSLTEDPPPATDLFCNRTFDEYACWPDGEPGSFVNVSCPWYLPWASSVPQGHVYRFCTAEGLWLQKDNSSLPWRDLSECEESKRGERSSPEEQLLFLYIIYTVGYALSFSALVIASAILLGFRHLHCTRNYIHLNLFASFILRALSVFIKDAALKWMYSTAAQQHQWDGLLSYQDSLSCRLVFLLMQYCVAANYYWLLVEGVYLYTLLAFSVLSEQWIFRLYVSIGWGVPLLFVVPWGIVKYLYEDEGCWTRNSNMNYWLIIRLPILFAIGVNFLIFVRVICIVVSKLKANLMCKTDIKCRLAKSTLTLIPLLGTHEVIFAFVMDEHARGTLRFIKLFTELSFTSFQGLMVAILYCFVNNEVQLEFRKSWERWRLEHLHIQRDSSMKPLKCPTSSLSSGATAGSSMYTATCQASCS

For `CCCCCCCCCCCCCCCCCC(=O)N[C@@H](CCC(=O)NCCOCCOCC(=O)NCCOCCOCC(=O)NCCCC[C@H](NC(=O)[C@H](CC(=O)O)NC(=O)[C@H](CO)NC(=O)[C@@H](NC(=O)[C@H](Cc1ccccc1)NC(=O)[C@@H](NC(=O)CNC(=O)[C@H](CCC(N)=O)NC(=O)C(C)(C)NC(=O)[C@@H](N)Cc1c[nH]cn1)[C@@H](C)O)[C@@H](C)O)C(=O)N[C@@H](CO)C(=O)N[C@@H](CCCCN)C(=O)N[C@@H](Cc1ccc(O)cc1)C(=O)N[C@@H](CC(C)C)C(=O)N[C@@H](CC(=O)O)C(=O)NC(C)(C)C(=O)N[C@@H](CCCNC(=N)N)C(=O)N[C@@H](CCCNC(=N)N)C(=O)N[C@@H](C)C(=O)N[C@@H](CCC(N)=O)C(=O)N[C@@H](CC(=O)O)C(=O)N[C@@H](Cc1ccccc1)C(=O)N[C@H](C(=O)N[C@@H](CCC(N)=O)C(=O)N[C@@H](Cc1c[nH]c2ccccc12)C(=O)N[C@@H](CC(C)C)C(=O)N[C@@H](CCSC)C(=O)N[C@@H](CC(N)=O)C(=O)N[C@H](C(=O)N[C@@H](CCCCN)C(=O)O)[C@@H](C)O)C(C)C)C(=O)O` [Compound 3], the pEC50 at Human glucagon receptors and on Human GLP-1 receptors was more than 11.00 in each case.

Regarding `CCCCCCCCCCCCCCCCCC(=O)N[C@@H](CCC(=O)NCCOCCOCC(=O)NCCOCCOCC(=O)NCCCC[C@H](NC(=O)[C@H](CC(=O)O)NC(=O)[C@H](CO)NC(=O)[C@@H](NC(=O)[C@H](Cc1ccccc1)NC(=O)[C@@H](NC(=O)CNC(=O)[C@H](CCC(N)=O)NC(=O)C(C)(C)NC(=O)[C@@H](N)Cc1c[nH]cn1)[C@@H](C)O)[C@@H](C)O)C(=O)N[C@@H](CO)C(=O)N[C@@H](CCCCN)C(=O)N[C@@H](Cc1ccc(O)cc1)C(=O)N[C@@H](CC(C)C)C(=O)N[C@@H](CC(=O)O)C(=O)NC(C)(C)C(=O)N[C@@H](CCCNC(=N)N)C(=O)N[C@@H](CCCNC(=N)N)C(=O)N[C@@H](C)C(=O)N[C@@H](CCC(N)=O)C(=O)N[C@@H](CC(=O)O)C(=O)N[C@@H](Cc1ccccc1)C(=O)N[C@H](C(=O)N[C@@H](CCC(N)=O)C(=O)N[C@@H](Cc1c[nH]c2ccccc12)C(=O)N[C@@H](CC(C)C)C(=O)N[C@@H](CCSC)C(=O)N[C@@H](CC(N)=O)C(=O)N[C@H](C(=O)N[C@@H](CCCCN)C(N)=O)[C@@H](C)O)C(C)C)C(=O)O` [Compound 6], the pEC50 on Human glucagon receptors and on Human GLP-1 receptors was more than 11.00 each time.

With `CCCCCCCCCCCCCCCCCC(=O)N[C@@H](CCC(=O)NCCOCCOCC(=O)NCCOCCOCC(=O)NCCCC[C@H](NC(=O)[C@H](CC(=O)O)NC(=O)[C@H](CO)NC(=O)[C@@H](NC(=O)[C@H](Cc1ccccc1)NC(=O)[C@@H](NC(=O)CNC(=O)[C@H](CCC(N)=O)NC(=O)C(C)(C)NC(=O)[C@@H](N)Cc1c[nH]cn1)[C@@H](C)O)[C@@H](C)O)C(=O)N[C@@H](CO)C(=O)N[C@@H](CCCCN)C(=O)N[C@@H](Cc1ccc(O)cc1)C(=O)N[C@@H](CC(C)C)C(=O)N[C@@H](CC(=O)O)C(=O)NC(C)(C)C(=O)N[C@@H](CCCNC(=N)N)C(=O)N[C@@H](CCCNC(=N)N)C(=O)N[C@@H](C)C(=O)N[C@@H](CCC(N)=O)C(=O)N[C@@H](CC(=O)O)C(=O)N[C@@H](Cc1ccccc1)C(=O)N[C@H](C(=O)N[C@@H](CCC(N)=O)C(=O)N[C@@H](Cc1c[nH]c2ccccc12)C(=O)N[C@@H](CC(C)C)C(=O)N[C@@H](CCSC)C(=O)N[C@@H](CC(N)=O)C(=O)N[C@H](C(=O)N[C@@H](CCCCN)C(=O)N[C@@H](CCCNC(=N)N)C(=O)N[C@@H](CC(N)=O)C(=O)N[C@@H](CCCNC(=N)N)C(=O)N[C@@H](CC(N)=O)C(=O)N[C@@H](CC(N)=O)C(=O)N[C@H](C(=O)N[C@@H](C)C(=O)O)[C@@H](C)CC)[C@@H](C)O)C(C)C)C(=O)O` [Compound 7], the pEC50 at Human glucagon receptors and at Human GLP-1 receptors was more than 11.00 each time.

Take `CCCCCCCCCCCCCCCCCCCC(=O)N[C@@H](CCC(=O)NCCOCCOCC(=O)NCCOCCOCC(=O)NCCCC[C@H](NC(=O)[C@H](CC(=O)O)NC(=O)[C@H](CO)NC(=O)[C@@H](NC(=O)[C@H](Cc1ccccc1)NC(=O)[C@@H](NC(=O)CNC(=O)[C@H](CCC(N)=O)NC(=O)C(C)(C)NC(=O)[C@@H](N)Cc1c[nH]cn1)[C@@H](C)O)[C@@H](C)O)C(=O)N[C@@H](CO)C(=O)N[C@@H](CCCCN)C(=O)N[C@@H](Cc1ccc(O)cc1)C(=O)N[C@@H](CC(C)C)C(=O)N[C@@H](CC(=O)O)C(=O)NC(C)(C)C(=O)N[C@@H](CCCNC(=N)N)C(=O)N[C@@H](CCCNC(=N)N)C(=O)N[C@@H](C)C(=O)N[C@@H](CCC(N)=O)C(=O)N[C@@H](CC(=O)O)C(=O)N[C@@H](Cc1ccccc1)C(=O)N[C@H](C(=O)N[C@@H](CCC(N)=O)C(=O)N[C@@H](Cc1c[nH]c2ccccc12)C(=O)N[C@@H](CC(C)C)C(=O)N[C@@H](CCSC)C(=O)N[C@@H](CC(N)=O)C(=O)N[C@H](C(=O)N[C@@H](CCCCN)C(=O)O)[C@@H](C)O)C(C)C)C(=O)O` [Compound 8]: the pEC50 on Human glucagon receptors and at Human GLP-1 receptors was 10.00 to 11.00 throughout.

Take `CCCCCCCCCCCCCCCCCC(=O)N[C@@H](CCC(=O)N[C@@H](CCC(=O)NCCOCCOCC(=O)NCCOCCOCC(=O)NCCCC[C@H](NC(=O)[C@H](CC(=O)O)NC(=O)[C@H](CO)NC(=O)[C@@H](NC(=O)[C@H](Cc1ccccc1)NC(=O)[C@@H](NC(=O)CNC(=O)[C@H](CCC(N)=O)NC(=O)C(C)(C)NC(=O)[C@@H](N)Cc1c[nH]cn1)[C@@H](C)O)[C@@H](C)O)C(=O)N[C@@H](CO)C(=O)N[C@@H](CCCCN)C(=O)N[C@@H](Cc1ccc(O)cc1)C(=O)N[C@@H](CC(C)C)C(=O)N[C@@H](CC(=O)O)C(=O)NC(C)(C)C(=O)N[C@@H](CCCNC(=N)N)C(=O)N[C@@H](CCCNC(=N)N)C(=O)N[C@@H](C)C(=O)N[C@@H](CCC(N)=O)C(=O)N[C@@H](CC(=O)O)C(=O)N[C@@H](Cc1ccccc1)C(=O)N[C@H](C(=O)N[C@@H](CCC(N)=O)C(=O)N[C@@H](Cc1c[nH]c2ccccc12)C(=O)N[C@@H](CC(C)C)C(=O)N[C@@H](CCSC)C(=O)N[C@@H](CC(N)=O)C(=O)N[C@H](C(=O)N[C@@H](CCCCN)C(=O)O)[C@@H](C)O)C(C)C)C(=O)O)C(=O)O` [Compound 9]: the negative logarithm of the EC50 (pEC50) at Human glucagon receptors and on Human GLP-1 receptors was more than 11.00 throughout.

Turning to `CCCCCCCCCCCCCCCCCC(=O)N[C@@H](CCC(=O)NCCOCCOCC(=O)NCCOCCOCC(=O)NCCOCCOCC(=O)NCCCC[C@H](NC(=O)[C@H](CC(=O)O)NC(=O)[C@H](CO)NC(=O)[C@@H](NC(=O)[C@H](Cc1ccccc1)NC(=O)[C@@H](NC(=O)CNC(=O)[C@H](CCC(N)=O)NC(=O)C(C)(C)NC(=O)[C@@H](N)Cc1c[nH]cn1)[C@@H](C)O)[C@@H](C)O)C(=O)N[C@@H](CO)C(=O)N[C@@H](CCCCN)C(=O)N[C@@H](Cc1ccc(O)cc1)C(=O)N[C@@H](CC(C)C)C(=O)N[C@@H](CC(=O)O)C(=O)NC(C)(C)C(=O)N[C@@H](CCCNC(=N)N)C(=O)N[C@@H](CCCNC(=N)N)C(=O)N[C@@H](C)C(=O)N[C@@H](CCC(N)=O)C(=O)N[C@@H](CC(=O)O)C(=O)N[C@@H](Cc1ccccc1)C(=O)N[C@H](C(=O)N[C@@H](CCC(N)=O)C(=O)N[C@@H](Cc1c[nH]c2ccccc12)C(=O)N[C@@H](CC(C)C)C(=O)N[C@@H](CCSC)C(=O)N[C@@H](CC(N)=O)C(=O)N[C@H](C(=O)N[C@@H](CCCCN)C(=O)O)[C@@H](C)O)C(C)C)C(=O)O` [Compound 10], the pEC50 on Human glucagon receptors and at Human GLP-1 receptors was more than 11.00 in each case.
